# Data: patent US20210040118A1, “IMMUNOMODULATORS, COMPOSITIONS AND METHODS THEREOF” (BETTA PHARMACEUTICALS CO., LTD, priority 2018, published 2021)
# Molecular target: T1, PD-1/PD-L1 (Homo sapiens, UniProt Q9NZQ7)
# T1 construct: Recombinant human PD-L1 protein (19-238) with a His-tag at the C-terminus; purchased AcroBiosystems PD1-H5229 (PD-L1); PD1-H5257 (PD-1)
# Experiment: PD-1/PD-L1 homogenous time-resolved fluorescence (HTRF) binding assay
# Settings: recombinant human PD-L1 (19-238) His-tag / human PD-1 (25-167) Fc tag
# Protocol: Resolved Fluorescence (HTRF) Binding Assay
# The assays were conducted in a standard black 384-well polystyrene plate with a final volume of 20 μL. Inhibitors were first serially diluted in DMSO and then added to the plate wells before the addition of other reaction components. The final concentration of DMSO in the assay was 1%. The assays were carried out at 25° C. in the PBS buffer (pH 7.4) with 0.05% Tween-20 and 0.1% BSA. Recombinant human PD-L1 protein (19-238) with a His-tag at the C-terminus was purchased from AcroBiosy stems (PD1-H5229). Recombinant human PD-1 protein (25-167) with Fc tag at the C-terminus was also purchased from AcroBiosystems (PD1-H5257). PD-L1 and PD-1 proteins were diluted in the assay buffer and 10 μL was added to the plate well. Plates were centrifuged and proteins were preincubated with inhibitors for 40 min. The incubation was followed by the addition of […] of HTRF detection buffer supplemented with Europium cryptate-labeled anti-human IgG (PerkinElmer-AD0212) specific for Fc and anti-His antibody conjugated to SureLight®-Allophycocyanin (APC, PerkinElmer-AD0059H). After centrifugation, the plate was incubated at 25° C. for 60 min. Before reading on a PHERAstar FS plate reader (665 nm/620 nm ratio). Final concentrations in the assay were […] PD1, 10 nM PD-L1, 1 nM europium anti-human IgG and 20 nM anti-His-Allophycocyanin. IC50 determination was performed by fitting the curve of percent control activity versus the log of the inhibitor concentration using the GraphPad Prism 5.0 software.
# Data obtained for the Example compounds using the PD-1/PD-L1 homogenous time-resolved fluorescence (HTRF) binding assay described in Example A is provided in Table 4.
# T1 sequence (Q9NZQ7 19-238): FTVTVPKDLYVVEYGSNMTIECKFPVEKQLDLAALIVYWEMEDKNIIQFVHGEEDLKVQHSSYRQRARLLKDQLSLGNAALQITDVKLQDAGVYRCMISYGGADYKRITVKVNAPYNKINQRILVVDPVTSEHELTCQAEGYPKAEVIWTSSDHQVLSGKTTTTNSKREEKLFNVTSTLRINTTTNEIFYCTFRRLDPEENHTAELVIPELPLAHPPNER
Compound,IC50 (class symbols),IC50 (numeric values)
"Cc1c(NC(=O)c2nnc([C@H](C)N)o2)cccc1-c1cccc(NC(=O)c2nnc([C@H](C)N)o2)c1C [Example 9, N,N′-(2,2′-dimethyl-[1,1′-biphenyl]-3,3′-diyl)bis(5-((S)-1-aminoethyl)-1,3,4-oxadiazole-2-carboxamide)]",< 0.025 µM,
"Cc1nc(C(=O)Nc2cccc(-c3cccc(NC(=O)c4nc(C)c(CN5CCCC[C@H]5C(=O)O)s4)c3C)c2C)sc1CN1CCCC[C@H]1C(=O)O [Example 52, (2S,2'S)-1,1′-(2,2′-(2,2′-dimethylbiphenyl-3,3′-diyl)bis(azanediyl)bis(oxomethylene)bis(4-methylthiazole-5,2-diyl))bis(methylene)dipiperidine-2-carboxylic acid]",< 0.025 µM,
"Cc1c(NC(=O)c2nnc([C@H](C)N3CCCC[C@H]3C(=O)O)o2)cccc1-c1cccc(NC(=O)c2nnc([C@H](C)N3CCCC[C@H]3C(=O)O)o2)c1C [Example 16, (2S,2'S)-1,1′-((1S,1'S)-((((2,2′-dimethyl-[1,1′-biphenyl]-3,3′-diyl)bis(azanediyl))bis(carbonyl))bis(1,3,4-oxadiazole-5,2-diyl))bis(ethane-1,1-diyl))bis(piperidine-2-carboxylic acid)]",< 0.025 µM,
"Cc1nc(C(=O)Nc2cccc(-c3cccc4c3CCN4C(=O)c3nc(C)c(CN[C@H](C(=O)O)C4CCOCC4)s3)c2C)sc1CN[C@H](C(=O)O)C1CCOCC1 [Example 59, (S)-2-((2-(3-(1-(5-(((S)-carboxy(tetrahydro-2H-pyran-4-yl)methylamino)methyl)-4-methylthiazole-2-carbonyl)indolin-4-yl)-2-methylphenylcarbamoyl)-4-methylthiazol-5-yl)methylamino)-2-(tetrahydro-2H-pyran-4-yl)acetic acid]",< 0.025 µM,
"Cc1c(-c2cccc(N(C)C(=O)c3cc4c(s3)CCNC4)c2C)cccc1N(C)C(=O)c1cn2c(n1)CNCC2 [Example 34, N-(2,2′-dimethyl-3′-(N-methyl-5,6,7,8-tetrahydroimidazo[1,2-a]pyrazine-2-carboxamido)-[1,1′-biphenyl]-3-yl)-N-methyl-4,5,6,7-tetrahydrothieno[3,2-c]pyridine-2-carboxamide]",< 0.025 µM,
"Cc1c(NC(=O)c2nc3c(s2)CNCC3)cccc1-c1cccc(NC(=O)c2nc3c(s2)CNCC3)c1C [Example 1, N,N′-(2,2′-dimethyl-[1,1′-biphenyl]-3,3′-diyl)bis(4,5,6,7-tetrahydrothiazolo[5,4-c]pyridine-2-carboxamide)]",,0.00048 µM
"Cc1c(NC(=O)c2cn3c(n2)CNCC3)cccc1-c1cccc(NC(=O)c2cc3c(s2)CCNC3)c1C [Example 35, N-(2,2′-dimethyl-3′-(5,6,7,8-tetrahydroimidazo[1,2-a]pyrazine-2-carboxamido)-[1,1′-biphenyl]-3-yl)-4,5,6,7-tetrahydrothieno[3,2-c]pyridine-2-carboxamide]",< 0.025 µM,
"Cc1c(NC(=O)c2ncc(CN3CCCC[C@H]3C(=O)O)s2)cccc1-c1cccc2c1CCN2C(=O)c1ncc(CN2CCCC[C@H]2C(=O)O)s1 [Example 72, (S)-1-((2-((3-(1-(5-(((S)-2-carboxypiperidin-1-yl)methyl)thiazole-2-carbonyl)indolin-4-yl)-2-methylphenyl)carbamoyl)thiazol-5-yl)methyl)piperidine-2-carboxylic acid]",< 0.025 µM,
"Cc1c(NC(=O)c2cn3c(n2)CNCC3)cccc1-c1cccc(NC(=O)c2cn3c(n2)CNCC3)c1C [Example 8, N,N′-(2,2′-dimethyl-[1,1′-biphenyl]-3,3′-diyl)bis(5,6,7,8-tetrahydroimidazo[1,2-a]pyrazine-2-carboxamide)]",< 0.025 µM,
"Cc1nc(C(=O)N2CCc3c(-c4cccc5c4CCN5C(=O)c4nc(C)c(CN5CCCC[C@H]5C(=O)O)s4)cccc32)sc1CN1CCCC[C@H]1C(=O)O [Example 56, (2S,2'S)-1,1′-(2,2′-(4,4′-biindoline-1,1′-diylbis(oxomethylene))bis(4-methylthiazole-5,2-diyl))bis(methylene)dipiperidine-2-carboxylic acid]",< 0.025 µM,
"Cc1c(NC(=O)c2nnc(C3CCCN3)o2)cccc1-c1cccc(NC(=O)c2nnc(C3CCCN3)o2)c1C (centres unmarked) [Example 41, N,N′-(2,2′-dimethyl-[1,1′-biphenyl]-3,3′-diyl)bis(5-(pyrrolidin-2-yl)-1,3,4-oxadiazole-2-carboxamide)]",< 0.025 µM,
"O=C(Nc1cccc(-c2cccc(NC(=O)c3ncc(CNCC(F)(F)F)s3)c2Cl)c1Cl)c1ncc(CNCC(F)(F)F)s1 [Example 68, N,N′-(2,2′-dichloro-[1,1′-biphenyl]-3,3′-diyl)bis(5-(((2,2,2-trifluoroethyl)amino)methyl)thiazole-2-carboxamide)]",< 0.025 µM,
"Cc1c(NC(=O)c2nc3cc(N)ccc3[nH]2)cccc1-c1cccc(NC(=O)c2nc3c(s2)CNCC3)c1C [Example 12, N-(3′-(5-amino-1H-benzo[d]imidazole-2-carboxamido)-2,2′-dimethyl-[1,1′-biphenyl]-3-yl)-4,5,6,7-tetrahydrothiazolo[5,4-c]pyridine-2-carboxamide]",0.025 to 0.1 µM,
"Cc1c(NC(=O)c2nnc(CNC(=N)N)s2)cccc1-c1cccc(NC(=O)c2nnc(CNC(=N)N)s2)c1C [Example 37, N,N′-(2,2′-dimethyl-[1,1′-biphenyl]-3,3′-diyl)bis(5-(guanidinomethyl)-1,3,4-thiadiazole-2-carboxamide)]",< 0.025 µM,

# Further lines, results first:
IC50 (class symbols),IC50 (numeric values),Compound
< 0.025 µM,,"CN(C)Cc1cnc(C(=O)N2CCc3c(-c4cccc5c4CCN5C(=O)c4ncc(CN(C)C)s4)cccc32)s1 [Example 112, [4,4′-biindoline]-1,1′-diylbis((5-((dimethylamino)methyl)thiazol-2-yl)methanone)]"
< 0.025 µM,,"CC(C(=O)NS(C)(=O)=O)N1CCc2nc(C(=O)N3CCc4c(-c5cccc6c5CCN6C(=O)c5nc6c(s5)CN(C(C)C(=O)NS(C)(=O)=O)CC6)cccc43)sc2C1 (centres unmarked) [Example 127, 2,2′-(([4,4′-biindoline]-1,1′-dicarbonyl)bis(6,7-dihydrothiazolo[5,4-c]pyridine-2,5(4H)-diyl))bis(N-(methylsulfonyl)propanamide)]"
< 0.025 µM,,"O=C(Nc1cccc(-c2cccc(NC(=O)c3nc4c(s3)CN(CCO)CC4)c2Cl)c1Cl)c1nc2c(s1)CN(CCO)CC2 [Example 91, N,N′-(2,2′-dichloro-[1,1′-biphenyl]-3,3′-diyl)bis(5-(2-hydroxyethyl)-4,5,6,7-tetrahydrothiazolo[5,4-c]pyridine-2-carboxamide)]"
0.025 to 0.1 µM,,"Cc1c(NC(=O)c2ccc3c(n2)CCN(CCN2CCOCC2)C3)cccc1-c1cccc(NC(=O)c2ccc3c(n2)CCN(CCN2CCOCC2)C3)c1C [Example 176, N,N′-(2,2′-dimethyl-[1,1′-biphenyl]-3,3′-diyl)bis(6-(2-morpholinoethyl)-5,6,7,8-tetrahydro-1,6-naphthyridine-2-carboxamide)]"
< 0.025 µM,,"Cc1c(Nc2nccc3cc(CNCC(=O)N(C)C)cnc23)cccc1-c1cccc2c1CCN2C(=O)C1=NC2CCN(CC(=O)O)CC2S1 (centres unmarked) [Example 165, 2-(2-(4-(3-((3-(((2-(dimethylamino)-2-oxoethyl)amino)methyl)-1,7-naphthyridin-8-yl)amino)-2-methylphenyl)indoline-1-carbonyl)-3a,6,7,7a-tetrahydrothiazolo[5,4-c]pyridin-5(4H)-yl)acetic acid]"
< 0.025 µM,,"Cc1c(Nc2nccc3cc(CNCC(N)=O)cnc23)cccc1-c1cccc(Nc2nccc3cc(CNCC(N)=O)cnc23)c1C [Example 144, 2,2′-(((((2,2′-dimethyl-[1,1′-biphenyl]-3,3′-diyl)bis(azanediyl))bis(1,7-naphthyridine-8,3-diyl))bis(methylene))bis(azanediyl))diacetamide]"
< 0.025 µM,,"Cc1c(Nc2nccc3cc(CNC(C(=O)O)C(C)C)cnc23)cccc1-c1cccc(Nc2nccc3cc(CNC(C(=O)O)C(C)C)cnc23)c1C (centres unmarked) [Example 142, 2,2′-(((((2,2′-dimethyl-[1,1′-biphenyl]-3,3′-diyl)bis(azanediyl))bis(1,7-naphthyridine-8,3-diyl))bis(methylene))bis(azanediyl))bis(3-methylbutanoic acid)]"
< 0.025 µM,,"Cc1nc(C(=O)N2CCc3c(-c4cccc5c4CCN5C(=O)c4ncc(CN(C)CCO)s4)cccc32)sc1CN(C)C [Example 115, (5-((dimethylamino)methyl)-4-methylthiazol-2-yl)(1′-(5-(((2-hydroxyethyl)(methyl)amino)methyl)thiazole-2-carbonyl)-[4,4′-biindolin]-1-yl)methanone]"
< 0.025 µM,,"Cc1c(NC(=O)c2nc3c(s2)CNCC3)cc(F)cc1-c1cccc2c1CCN2C(=O)c1nc2c(s1)CNCC2 [Example 95, N-(5-fluoro-2-methyl-3-(1-(4,5,6,7-tetrahydrothiazolo[5,4-c]pyridine-2-carbonyl)indolin-4-yl)phenyl)-4,5,6,7-tetrahydrothiazolo[5,4-c]pyridine-2-carboxamide]"
